Holding throughout (type): cell-based
Experiment [1] concerns the target T1, human SGLT5 (Homo sapiens, UniProt A0PJK1).
T1 construct: expressed in transfected cells
T1 sequence (A0PJK1 1-596): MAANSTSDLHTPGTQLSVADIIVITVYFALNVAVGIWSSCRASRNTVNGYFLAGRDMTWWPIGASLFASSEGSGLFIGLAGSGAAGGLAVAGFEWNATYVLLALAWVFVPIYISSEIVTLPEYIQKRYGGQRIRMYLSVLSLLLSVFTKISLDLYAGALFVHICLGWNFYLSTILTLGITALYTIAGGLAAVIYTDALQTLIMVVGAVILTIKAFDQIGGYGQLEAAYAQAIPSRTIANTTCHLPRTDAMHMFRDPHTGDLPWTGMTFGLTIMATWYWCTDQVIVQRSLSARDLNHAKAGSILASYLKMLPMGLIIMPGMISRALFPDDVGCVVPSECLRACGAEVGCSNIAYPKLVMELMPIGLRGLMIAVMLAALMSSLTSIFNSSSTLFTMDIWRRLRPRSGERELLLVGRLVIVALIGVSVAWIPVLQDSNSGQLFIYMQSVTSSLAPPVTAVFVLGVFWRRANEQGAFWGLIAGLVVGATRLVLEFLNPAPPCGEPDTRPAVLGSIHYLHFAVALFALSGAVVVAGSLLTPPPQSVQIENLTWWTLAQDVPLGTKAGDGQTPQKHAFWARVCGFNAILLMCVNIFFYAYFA
Briefly: Inhibition of 10 µM radiolabelled 1,5-AG transport in HEK293T cells overexpressing human SGLT5. On the procedure: (§1) For a typical transporter experiment we proceeded as follows. […] To minimize cell loss during the various washing steps in the radioactive uptake experiments, the wells where the cells were seeded were previously coated with poly- D-lysine, which improved their adhesion to the plastic surface of the wells. For this, each well of the 24-well plates was treated with 200 µl of a 0.01% poly-L-lysine solution for 10 min, washed 3 times with 1 ml of sterilized water and left to dry for 2 h. Only then could the 24-well plates be seeded with the appropriate cell lines and cultured overnight at 37 °C in 5% CO2.
(§2) On day two, the radioactive uptake assay could be performed. The cell culture media was removed by aspiration and cells were incubated for 20 min at 37 °C and 5% CO2 with a basal medium (10 mM HEPES, pH 7.4, 1 mM CaCl2, 1 mM MgCl2, 2 mM KCl) containing 140 mM choline chloride to deplete intracellular […] ions. This was subsequently replaced with the uptake medium (basal medium + 140 mM NaCl, 25 μM cytochalasin B, 1 mg/ml BSA) containing either radioactive U-[^14C]-mannose (15,000 cpm/well) or 2-[^3H]-1,5-AG (30,000 cpm/well) and respectively, non-radioactive mannose or 1,5-AG, at the required concentration in the experiment. Importantly, when measuring the transport of mannose, the uptake media also contained 0.5 mM glucose. This resulted from the need to reduce the background transport of mannose in control HEK293T cells in order to optimize the transport assay for this sugar in our model cell lines. Consequently, after testing various inhibitors (Supplementary Fig. 1), 0.5 mM glucose + 25 µM cytochalasin B appeared as the best combination to decrease efficiently the endogenous transport of mannose in control cells without affecting the transport of mannose in model cell lines overexpressing SGLT4 and SGLT5. Therefore in the radioactive uptake assays for mannose, the uptake medium was: basal uptake medium + 140 mM NaCl, 25 μM cytochalasin B, 0.5 mM glucose and 1 mg/ml BSA to which we added U-[^12C + ^14C]-mannose as described above.
(§3) Once the uptake medium was added to the cells, the plates were incubated at 37 °C in 5% CO2 during the required time. […] In each experiment, the transport activities were calculated after subtracting a “blank” value, corresponding to the radioactivity in the appropriate control cells (HEK293T cells that were stably or transiently transfected with one of the parent plasmids pEF6/MycHisA, pEF6HisB, pUB82 or pUB83 with no inserted cDNA) that were analyzed in parallel.
(§4) The transport experiments to study the specificity of SGLT4 or SGLT5, were performed in the presence of 10 µM U-[^14C + ^12C]-mannose (for SGLT4) or 2-[^3H + ^1H]-1,5-AG (for SGLT5) and increasing concentrations of various sugars tested. The transport experiments to study the inhibition of empagliflozin, dapagliflozin or remogliflozin, on the transport of 1,5-AG by SGLT5 or its variants were performed in the presence of 10 µM 2-[^3H + ^1H]-1,5-AG and increasing concentrations of the various gliflozins tested.

A further experiment addresses T2, human SGLT4 (Homo sapiens, UniProt Q2M3M2).
T2 construct: expressed in transfected cells
T2 sequence (Q2M3M2 1-681): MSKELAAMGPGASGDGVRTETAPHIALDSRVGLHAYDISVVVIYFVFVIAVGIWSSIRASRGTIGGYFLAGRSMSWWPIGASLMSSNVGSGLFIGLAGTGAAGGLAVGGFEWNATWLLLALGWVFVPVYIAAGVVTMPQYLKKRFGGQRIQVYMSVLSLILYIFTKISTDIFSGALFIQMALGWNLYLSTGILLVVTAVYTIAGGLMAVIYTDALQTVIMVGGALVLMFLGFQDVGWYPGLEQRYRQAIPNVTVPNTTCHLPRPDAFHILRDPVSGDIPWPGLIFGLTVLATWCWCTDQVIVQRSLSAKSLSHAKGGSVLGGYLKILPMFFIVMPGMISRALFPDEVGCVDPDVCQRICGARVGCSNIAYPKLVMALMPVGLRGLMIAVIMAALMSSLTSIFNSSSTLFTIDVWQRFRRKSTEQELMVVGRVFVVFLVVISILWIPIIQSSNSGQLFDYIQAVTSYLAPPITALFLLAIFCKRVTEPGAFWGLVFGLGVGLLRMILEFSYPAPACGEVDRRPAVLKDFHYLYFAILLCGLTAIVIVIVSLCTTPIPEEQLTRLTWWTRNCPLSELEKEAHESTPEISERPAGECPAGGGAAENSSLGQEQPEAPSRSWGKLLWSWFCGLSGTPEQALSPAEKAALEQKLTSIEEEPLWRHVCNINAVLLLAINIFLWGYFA
Briefly: Inhibition of 10 µM radiolabelled mannose transport in HEK293T cells overexpressing human SGLT4. Conditions: substrate 10 μM mannose. On the procedure:
as §1, §2, §3, §4

The target of experiment [2] is T1, human SGLT5. Briefly: Radioactive uptake assay (saturation kinetics) in HEK293T cells stably overexpressing human SGLT5-iso2. Conditions: for hSGLT5 Vmax: transport of the labelled substrate, Fig. 2B.
Source text: This assay was used to study (1) the transport of 1,5-AG or mannose by the HEK293T model cell lines that stably overexpressed the various transporters or by the transiently transfected HEK293T cells using JetPEI® as a transfection agent prepared as described above and (2) the substrate specificity of each transporter.
as §1
On day two, the radioactive uptake assay could be performed. The cell culture media was removed by aspiration and cells were incubated for 20 min at 37 °C and 5% CO2 with a basal medium (10 mM HEPES, pH 7.4, 1 mM CaCl2, 1 mM MgCl2, 2 mM KCl) containing 140 mM choline chloride to deplete intracellular […] ions. This was subsequently replaced with the uptake medium (basal medium + 140 mM NaCl, 25 μM cytochalasin B, 1 mg/ml BSA) containing either radioactive U-[^14C]-mannose (15,000 cpm/well) or 2-[^3H]-1,5-AG (30,000 cpm/well) and respectively, non-radioactive mannose or 1,5-AG, at the required concentration in the experiment. […]
as §3

[3] abbreviates: substrate 10 μM 1,5-AG, unlabelled sugars, Fig. 3C, read-out: hSGLT5 IC50.

The source of these data is paper PMC10439028, “SGLT5 is the renal transporter for 1,5-anhydroglucitol, a major player in two rare forms of neutropenia” (Cellular and Molecular Life Sciences: CMLS, 2023).

Like-named read-outs stand apart in the source and are kept apart here.

Broadly, the IC50 is the midpoint of a concentration-inhibition curve. For the compound `OC[C@H]1OC[C@H](O)[C@@H](O)[C@@H]1O` [1,5-AG, 1,5-anhydroglucitol], the half-maximal inhibitory concentration (IC50) at human SGLT5 [1] (10 µM 2-[1H+3H]-1,5-AG, Supplementary Fig. 7, read-out: IC50 for 1,5-AG, SGLT5-WT) was 162 µM; at human SGLT5 [1] (setting [3]), 167 µM. Moreover, the “preference of 1,5-AG over glucose, difference in Ki” value on human SGLT5 [1] (SGLT5) stood at 20 fold. Besides, the “hSGLT4 inhibition with 10 mM inhibitor” value on human SGLT4 (10 mM inhibitor) is “no inhibition”. The Vmax on human SGLT5 [2] (hSGLT5 WT, Table 1 experiments) is given as 17.3 ± 0.3 pmol/min/10^5cells. Besides, the “hSGLT5 Vmax” value on human SGLT5 [2] is 14.1 ± 0.8 pmol/min/10^5 cells.
In the case of `OC[C@H]1OC(O)[C@@H](O)[C@@H](O)[C@@H]1O` (stereo partly shown) [Mannose, mannose], the 50% inhibitory concentration (IC50) worked out at 380 µM on human SGLT5 [1] (setting [3]) and 125 µM on human SGLT4 (Fig. 3C, read-out: hSGLT4 IC50). Further, the “hSGLT5 Vmax” value on human SGLT5 [2] was found to be 44.7 ± 12.4 pmol/min/10^5 cells.
With `OC[C@H]1O[C@@H](c2ccc(Cl)c(Cc3ccc(O[C@H]4CCOC4)cc3)c2)[C@H](O)[C@@H](O)[C@@H]1O` [empagliflozin], the half-maximal inhibitory concentration (IC50) at human SGLT5 [1] (10 µM 2-[1H+3H]-1,5-AG, Fig. 5C, read-out: IC50 for SGLT5-mediated 1,5-AG transport (gliflozins)) turned out to be 0.7 µM.
